Earlier results on one compound are cited in patent US20110088590A1, “METHOD FOR TREATING WOOD” (priority 2005, published 2011).

In the data set the test system is honey bees and other beneficial insects, fish, aquatic insects, crayfish, and shrimp. The note with it: for many species.

In the case of `CC1(C)C(C=C(Cl)Cl)C1C(=O)OCc1cccc(Oc2ccccc2)c1` (stereo not shown) [Permethrin], the lethal concentration result is listed as “less than one”.
